Experimental data: ChEMBL document CHEMBL4017448, “Novel pyrazolo[1,5-a]pyridines as orally active EP1 receptor antagonists: Synthesis, structure-activity relationship studies, and biological evaluation” (Bioorg Med Chem, 2017)

Columns and labels:
[1] = molecular target: T1, Prostaglandin E2 receptor EP1 subtype (Rattus norvegicus, UniProt P70597); assay: Antagonist activity at rat EP1 receptor expressed in African green monkey COS1 cells assessed as decrease in prostaglandin E2-induced increase in intracellular calcium level incubated for 90 mins measured for 60 secs by Fluo 4-AM dye based fluorescence assay; format: functional, cell-based
T1 sequence (P70597 whole entry): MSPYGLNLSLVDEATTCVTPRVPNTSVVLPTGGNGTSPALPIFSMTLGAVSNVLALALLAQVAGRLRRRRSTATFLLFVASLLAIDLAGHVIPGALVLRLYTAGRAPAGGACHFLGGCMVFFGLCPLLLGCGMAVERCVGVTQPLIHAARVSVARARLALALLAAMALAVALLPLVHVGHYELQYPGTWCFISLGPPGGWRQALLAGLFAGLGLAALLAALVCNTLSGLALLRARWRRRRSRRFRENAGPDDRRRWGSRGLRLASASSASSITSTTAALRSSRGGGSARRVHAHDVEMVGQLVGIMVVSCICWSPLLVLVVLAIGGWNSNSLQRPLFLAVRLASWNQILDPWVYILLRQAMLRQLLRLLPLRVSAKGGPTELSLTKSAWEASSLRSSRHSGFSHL

[2] = Total clearance in rat at 1 mg/kg, iv; format: ADME, organism-based; conditions: in vivo
[3] = Volume of distribution in rat at 1 mg/kg, iv; format: ADME, organism-based; conditions: in vivo
[4] = Half life in rat at 1 mg/kg, iv; format: ADME, organism-based; conditions: in vivo
[5] = Half life in rat at 1 mg/kg, po; format: ADME, organism-based; conditions: in vivo
[6] = AUC (0 to 8 hrs) in rat at 1 mg/kg, iv; format: ADME, organism-based; design: dose 1 mg/kg, time < 8 hr, route intravenous; conditions: in vivo
[7] = AUC (0 to 8 hrs) in rat at 1 mg/kg, po; format: ADME, organism-based; design: time < 8 hr, dose 1 mg/kg, route oral; conditions: in vivo
[8] = AUC (0 to infinity) in rat at 1 mg/kg, iv; format: ADME, organism-based; design: dose 1 mg/kg, time infinity, route intravenous; conditions: in vivo
[9] = AUC (0 to infinity) in rat at 1 mg/kg, po; format: ADME, organism-based; design: dose 1 mg/kg, route oral, time infinity; conditions: in vivo
[10] = Oral bioavailability in rat at 1 mg/kg; format: ADME, organism-based; conditions: in vivo
[11] = system: Rattus norvegicus; assay: Reduction in 17-PTP induced bladder contraction in Wistar rat assessed as change in intravesical pressure administered intravenously pretreated for 5 followed by 17-PTP challenge at every 30 mins interval for 245 mins; format: functional
[12] = system: Rattus norvegicus; assay: Reduction in 17-PTP induced bladder contraction in Wistar rat assessed as change in intravesical pressure administered intraduodenal pretreated for 5 followed by 17-PTP challenge at every 30 mins interval for 245 mins; format: functional

Row | SMILES | IC50 [1] | other results
1 | Cc1cc(C(=O)O)nn1Cc1cc(Cl)cc2cc(C3CC3)nn12 | 180 nM | 
2 | COc1ccccc1-c1cc2cc(Cl)cc(Cn3nc(C(=O)O)cc3C)n2n1 | 840 nM | 
3 | O=C(O)c1ccn(Cc2cc(Cl)cc3cc(-c4ccccc4)nn23)c1 | 190 nM | 
4 | Cc1cc(C(=O)O)nn1Cc1ccc(Cl)c2cc(-c3ccccc3)nn12 | 2600 nM | 
5 | Cc1cc(C(=O)O)nn1Cc1c(Cl)ccc2cc(-c3ccccc3)nn12 | 540 nM | 
6 | Cc1cc(C(=O)O)nn1Cc1cc(Cl)cc2cc(-c3ccc(Cl)cc3)nn12 | 290 nM | 
7 | COc1ccc(-c2cc3cc(Cl)cc(Cn4nc(C(=O)O)cc4C)n3n2)cc1 | 410 nM | 
8 | COc1ccc2cc(-c3ccccc3)nn2c1Cn1nc(C(=O)O)cc1C | 1500 nM | 
9 | Cc1cc(C(=O)O)nn1Cc1cc(Cl)cc2cc(-c3ccccc3)nn12 | 9.4 nM | clearance [2]: 2.59 mL/min/kg; Vd [3]: 0.908 L/kg; half-life [4]: 4.99 h; half-life [5]: 4.28 h; AUC(0-t) at 8 h [6]: 5010 ng·h/mL; AUC(0-t) at 8 h [7]: 4870 ng·h/mL; AUC(0-inf) [8]: 7470 ng·h/mL; AUC(0-inf) [9]: 6030 ng·h/mL; bioavailability [10]: 81%; Activity [11]: Dose-dependent effect; Activity [12]: Dose-dependent effect
10 | Cc1cc(Cn2nc(C(=O)O)cc2C)n2nc(-c3ccccc3)cc2c1 | 450 nM | 
11 | Cc1cc(C(=O)O)nn1Cc1cc(Cl)cc2cc(C3CCCC3)nn12 | 410 nM | 
12 | Cc1cc(C(=O)O)nn1Cc1cc(C#N)cc2cc(-c3ccccc3)nn12 | 1000 nM | 
13 | Cc1cc(C(=O)O)nn1Cc1cc(Cl)cc2cc(-c3cccc(Cl)c3)nn12 | 150 nM | 
14 | Cc1cc(C(=O)O)nn1Cc1cc(C(F)(F)F)cc2cc(-c3ccccc3)nn12 | 300 nM | 
15 | CCc1cc(C(=O)O)nn1Cc1cc(Cl)cc2cc(-c3ccccc3)nn12 | 300 nM | 
16 | Cc1cc(C(=O)O)nn1Cc1cc(Cl)cc2cc(-c3ccccc3Cl)nn12 | 220 nM | 
17 | COc1cc(Cn2nc(C(=O)O)cc2C)n2nc(-c3ccccc3)cc2c1 | 9600 nM | 

Further molecules by falling IC50 [1], results first:

Row | IC50 [1] | SMILES | other results
18 | 2100 nM | Cc1cc(C(=O)O)nn1Cc1cc(Cl)cc2cc(C(C)(C)C)nn12 | 
19 | 2000 nM | CC(C)Cc1cc(C(=O)O)nn1Cc1cc(Cl)cc2cc(-c3ccccc3)nn12 | 
20 | 1900 nM | CCCCc1cc2cc(Cl)cc(Cn3nc(C(=O)O)cc3C)n2n1 | 
21 | 1500 nM | CCCC/C=C/c1cc(Cn2nc(C(=O)O)cc2C)n2nc(-c3ccccc3)cc2c1 | 
22 | 1400 nM | Cc1cc(C(=O)O)nn1Cc1cc(Cl)cc2cc(CC(C)C)nn12 | 
23 | 1200 nM | CC(C)c1cc(C(=O)O)nn1Cc1cc(Cl)cc2cc(-c3ccccc3)nn12 | 
24 | 1100 nM | COc1ccc(Cn2nc(C(=O)O)cc2C)n2nc(-c3ccccc3)cc12 | 
25 | 600 nM | CC(=O)c1cc(Cn2nc(C(=O)O)cc2C)n2nc(-c3ccccc3)cc2c1 | 
26 | 360 nM | C=Cc1cc(Cn2nc(C(=O)O)cc2C)n2nc(-c3ccccc3)cc2c1 | 
27 | 120 nM | Cc1cc(C(=O)O)nn1Cc1cccc2cc(-c3ccccc3)nn12 | 
28 | 110 nM | COc1cccc(-c2cc3cc(Cl)cc(Cn4nc(C(=O)O)cc4C)n3n2)c1 | 
29 | 97 nM | CCCc1cc(C(=O)O)nn1Cc1cc(Cl)cc2cc(-c3ccccc3)nn12 | 
30 | 89 nM | O=C(O)c1ccn(Cc2cc(Cl)cc3cc(-c4ccccc4)nn23)n1 | 
31 | 71 nM | Cc1cc(C(=O)O)nn1Cc1cc(Cl)cc2cc(C3CCCCC3)nn12 | 
32 | 22 nM | Cc1cc(C(=O)O)nn1Cc1cc(Cl)cc2cc(-c3ccccc3)oc12 | 
